From patent US20190100553A1, “DIRECT ACTIVITY ASSAYS AND COMPOSITIONS FOR NUCLEOTIDE POOL SANITIZING ENZYMES” (priority 2016, published 2019)

Biological target: T1, MTH1 (Homo sapiens, UniProt P36639)
T1 construct: Human MTH1 full length protein purchased from Abcam (Cambridge, USA); purchased Abcam
Assay: MTH1 inhibitor IC50 determination by two-tube OGAL probe assay
Type: biochemical
Conditions: 40 μM OGAL, read-out: apparent IC50
Experimental: Inhibitory concentration (IC50) values were determined by the two-tube OGAL probe assay. The reaction buffer contained: 50 mM NaCl, 10 mM Tris-HCl (pH 7.9), 10 mM MgCl2, 1 mM DTT, 40 μM OGAL nucleotides, and varied concentrations of inhibitors. After 15 min incubation at 30° C., 5 μL of this reaction solution was added to 95 μL luciferase reaction solution in a 96 well plate to measure ATP signals. All the reactions were performed as three replicates. The IC50 was calculated using GraphPad Prism software.

Nc1ncnc2c1c(-c1cccc(OCc3ccccc3)c1)cn2C1CC(CN2CCC2)C1 (stereo not shown) [NVP-AEW541]
IC50: 1900 nM
